Tests used:
U87 cells = test: Inflammatory cytokines in conditioned media (Luminex/BioPlex); assay type: cell-based, human; settings: EU 200 µM, BCA 125 µM, alone or in combination, 24 h
Method: (§1) In order to determine the impact of BCA and/or EU on inflammatory cytokines levels, cytokine expression analyses (L-6, IL-4, IL-8 and TNF-α) were performed using a customized detection panel purchased from Bio-techne (Minneapolis, MN, USA). The cells were seeded, in triplicate, into 24-well culture plates (8 × 10^4 cells/well). After 24 h, the medium was replaced and the cells were treated either with the vehicle (ethanol) or with different concentrations of EO single compounds alone (EU: 2 µM, 20 µM, 200 µM; and BCA: 1.25 µM, 12.5 µM, 125 µM) or in combination (EU 2 µM + BCA 1.25 µM; EU 20 µM + BCA 12.5 µM; and EU 200 µM + BCA 125 µM). The final concentration of ethanol in the cell medium was kept lower than 0.1%. The ethanol 0.1%-treated cells were considered the control condition. After the 24 h treatment, supernatants were collected and centrifuged at 4,000× g for 10 min, and the samples were analyzed with the BioPlex 200 instrument (BioRad®, Hercules, CA, USA) following the manufacturer’s protocol.

HMC3 cells [1] = test: as above; assay type: cell-based, human; settings: EU 200 µM, BCA 125 µM, alone or in combination, 24 h
Method: as §1

HMC3 cells [2] = test: Cell death assay (Annexin V/PI, flow cytometry); assay type: cell-based, human; settings: EU 200 µM, BCA 125 µM, alone or in combination, 24 h
Method: HMC3 and U87 cells were seeded in duplicate into 12-well plates (10 × 10^4 cells/well). After 24 h of incubation at 37 °C and 5% CO2, the medium was replaced, and the cells were treated either with EU (200 µM) or BCA (125 µM), alone and in combination (EU 200 µM + BCA 125 µM). Following the 24 h treatment, the cells were co-stained with AV-APC and PI according to the manufacturer’s protocol (Biolegend, San Diego, CA, USA). Briefly, the cells were resuspended in binding buffer (100 µL) and incubated with AV-APC solution (5 µL) and PI solution (2 µL) for 15 min at room temperature. Then, the cells were diluted in a binding buffer (400 µL). A six-parameter, four-color FACSCalibur flow cytometer (Becton Dickinson, San Jose, CA, USA) was used, and at least 10,000 events were collected by acquisition using CellQuest software (Becton Dickinson, San Jose, CA, USA). The results were analyzed with the Paint-a-Gate software and expressed in percentage (%).

in vivo = settings: male, Sprague-Dawley, rat; for Kp at 60 min: R (ratio of concentration between CSF and bloodstream)
Method: Male Sprague-Dawley rats (200–250 g) were purchased from the Charles River laboratories (Calco, Italy). BCA was administered to rats by intravenous and oral routes in order to evaluate the pharmacokinetic profiles in the bloodstream and cerebrospinal fluid (CSF). For the intravenous administration, BCA EO (84% w/w BCA content) was dissolved in ethanol to obtain a final BCA concentration of 8 mg/mL. A group (n = 4) of rats, fasted for 24 h, was anesthetized during the experimental period and then received via a femoral intravenous infusion (rate = 10 μL/min; 5 min) 50 µL of the 8 mg/mL ethanolic solution (BCA dose 2 mg/kg). This dosage was chosen basing on a previous study where BCA was intravenously administered to rats at a dose of about 1.5 mg/kg as a minor component of Artemisiae argyi Folium EO (5.3% w/w). For oral administration, BCA EO was dissolved in corn oil to obtain a final BCA concentration of 20 mg/mL. A total of 500 µL of this corn oil solution was orally administered by gavage to a group (n = 4) of rats kept fasting for 24 h (BCA dose 50 mg/kg).
At the end of the intravenous and oral administrations and at fixed time points, blood samples (100 μL) were collected. Moreover, CFS samples (about 30 μL) were withdrawn using the cisternal puncture method previously described. This method requires a single needle stick and allows the collection of serial (about 30 μL) CSF samples that are virtually blood-free. A total volume of a maximum of 120 μL of CSF/rat (i.e., four 30 μL samples/rat) was collected during the experimental session, choosing the time points (n = 4) to allow the restoration of the CSF physiological volume. The CSF samples (10 μL) were immediately analyzed via HPLC (see below) for the quantification of BCA. For the BCA analysis in the bloodstream, the blood samples (n = 4) were immediately added to 200 μL of ice-cold CH3CN, then 100 μL of the internal standard dissolved in CH3CN (100 μM GER-UDCA, obtained by the conjugation of geraniol with ursodeoxycholic acid) was further inserted. The samples were centrifuged at 16,000× g for 5 min, then about 300 μL of the supernatant was withdrawn and further centrifuged. Finally, 10 μL was analyzed via HPLC (see below) for BCA quantification. A blood sample (100 μL) was collected from each rat before the administration of the compound and was used as a control. The control samples were immediately added to 300 μL of ice-cold CH3CN in the absence of the internal standard and then treated as described above.
The BCA was quantified by the HPLC method, using a chromatographic apparatus that consisted of a modular system (model LC-10 AD VD pump and model SPD-10A VP variable wavelength UV−vis detector; Shimadzu, Kyoto, Japan) and an injection valve with a 20 μL sample loop (model 7725; Rheodyne, IDEX, Torrance, CA, USA). The separations were performed on a 5 μm Hypersil BDS C-18 column (150 mm × 4.6 mm i.d.; ThermoFisher Scientific S.p.A., Milan, Italy) equipped with a guard column packed with the same Hypersil material at room temperature by injecting 10 µL of the samples into the apparatus. Data were acquired and processed using CLASS-VP software, version 7.2.1 (Shimadzu Italia, Milan, Italy), installed on a personal computer. The mobile phase consisted of an isocratic mixture of water and acetonitrile at a ratio of 10:90 (v/v), with a flow rate of 1 mL/min. The detector was set at 205 nm. The retention times obtained were 7.5 min for BCA and 5.6 min for GER-UDCA.
The chromatographic precision was evaluated by repeated analyses (n = 6) of the same sample solution containing 100 μM (20.435 µg/mL) BCA dissolved in a mixture of water and CH3CN 25:75 (v/v). The chromatographic precision, expressed as the relative standard deviation (RSD) value, was 0.84%. […]

[3] = iv, 2 mg/kg, cerebrospinal fluid (CSF)
[4] = po, 50 mg/kg, cerebrospinal fluid (CSF)

SMILES: C=C1CC/C=C(\C)CC[C@@H]2[C@@H]1CC2(C)C [BCA, β-Caryophyllene]
- IL-4 levels, change vs control (U87 cells): −29.3%
- IL-6 secretion, change vs control (U87 cells): None of the treatments modulated
- IL-8 secretion, change vs control (U87 cells): unaffected
- IL-4 levels, change vs control (HMC3 cells [1]): −52.2%
- IL-6 secretion, change vs control (HMC3 cells [1]): −55.5%
- IL-8 secretion, change vs control (HMC3 cells [1]): −38.0%
- TNF-α secretion, change vs control (HMC3 cells [1]): −49.7%
- cell viability (HMC3 cells [2]): did not affect
- bioavailability (in vivo; F (absolute bioavailability)): 2.11 ± 0.03%
- half-life (in vivo; iv, 2 mg/kg): 49.7 ± 2 min
- time at which CSF concentration decreased to zero (in vivo; iv, 2 mg/kg): ≤ 150 min
- time at which bloodstream concentration decreased to zero (in vivo; iv, 2 mg/kg): ≤ 180 min
- AUC (in vivo; iv, 2 mg/kg, bloodstream): 108000 ng·h/mL
- AUC (in vivo; [3]): 6290 ng·h/mL
- Cmax (in vivo; [3]): 8000 ± 800 ng/mL
- Kp at 60 min (in vivo; iv, 2 mg/kg): 0.08 ± 0.01
- Kp at 30 min (in vivo; iv, 2 mg/kg, R (ratio of concentration between CSF and bloodstream) at CSF Tmax): 0.13 ± 0.01
- Tmax (in vivo; [3]): 30 min
- Cmax, bloodstream (in vivo; po, 50 mg/kg): 22530 ± 90 ng/mL
- time at which CSF concentration decreased to zero (in vivo; po, 50 mg/kg): 120 min
- time at which bloodstream concentration decreased to 0 (in vivo; po, 50 mg/kg): 300 min
- R (ratio of concentration between CSF and bloodstream) at CSF Tmax (in vivo; po, 50 mg/kg, 90 min): 0.019 ± 0.002
- AUC (in vivo; po, 50 mg/kg, bloodstream): 56800 ng·h/mL
- AUC (in vivo; [4]): 313 ng·h/mL
- Cmax (in vivo; po, 50 mg/kg, bloodstream): 22500 ± 900 ng/mL
- Cmax (in vivo; [4]): 420 ± 40 ng/mL
- Kp at 60 min (in vivo; po, 50 mg/kg): ~0.01
- Kp at 90 min (in vivo; po, 50 mg/kg, R (ratio of concentration between CSF and bloodstream) at CSF Tmax): ~0.02
- Tmax (in vivo; po, 50 mg/kg, bloodstream): 60 min
- Tmax (in vivo; [4]): 90 min

— paper PMC11720353, “Clove Essential Oil as a Source of Antitumoral Compounds Capable of Crossing the Blood–Brain Barrier: A Focus on the Effects of β-Caryophyllene and Eugenol in a Glioblastoma Cell Line” (International Journal of Molecular Sciences, 2024)
